Experimental data: patent publication US8710043B2, “TRPM8 antagonists and their use in treatments” (Amgen Inc., priority 2011, dated 2014)

target: T1, human TRPM8 (Homo sapiens, UniProt Q7Z2W7); experiment: Luminescence readout assay for measuring intracellular calcium, icilin activation; type: cell-based; settings: CHO cells expressing human TRPM8, aequorin luminescence, 1 μM icilin activation; read-out: hTRPM8 IC50
T1 construct: expressed in transfected cells; host or cells: Chinese hamster ovary (CHO) cells, T-REx tetracycline-inducible system, co-transfected with aequorin
T1 sequence (Q7Z2W7 whole entry): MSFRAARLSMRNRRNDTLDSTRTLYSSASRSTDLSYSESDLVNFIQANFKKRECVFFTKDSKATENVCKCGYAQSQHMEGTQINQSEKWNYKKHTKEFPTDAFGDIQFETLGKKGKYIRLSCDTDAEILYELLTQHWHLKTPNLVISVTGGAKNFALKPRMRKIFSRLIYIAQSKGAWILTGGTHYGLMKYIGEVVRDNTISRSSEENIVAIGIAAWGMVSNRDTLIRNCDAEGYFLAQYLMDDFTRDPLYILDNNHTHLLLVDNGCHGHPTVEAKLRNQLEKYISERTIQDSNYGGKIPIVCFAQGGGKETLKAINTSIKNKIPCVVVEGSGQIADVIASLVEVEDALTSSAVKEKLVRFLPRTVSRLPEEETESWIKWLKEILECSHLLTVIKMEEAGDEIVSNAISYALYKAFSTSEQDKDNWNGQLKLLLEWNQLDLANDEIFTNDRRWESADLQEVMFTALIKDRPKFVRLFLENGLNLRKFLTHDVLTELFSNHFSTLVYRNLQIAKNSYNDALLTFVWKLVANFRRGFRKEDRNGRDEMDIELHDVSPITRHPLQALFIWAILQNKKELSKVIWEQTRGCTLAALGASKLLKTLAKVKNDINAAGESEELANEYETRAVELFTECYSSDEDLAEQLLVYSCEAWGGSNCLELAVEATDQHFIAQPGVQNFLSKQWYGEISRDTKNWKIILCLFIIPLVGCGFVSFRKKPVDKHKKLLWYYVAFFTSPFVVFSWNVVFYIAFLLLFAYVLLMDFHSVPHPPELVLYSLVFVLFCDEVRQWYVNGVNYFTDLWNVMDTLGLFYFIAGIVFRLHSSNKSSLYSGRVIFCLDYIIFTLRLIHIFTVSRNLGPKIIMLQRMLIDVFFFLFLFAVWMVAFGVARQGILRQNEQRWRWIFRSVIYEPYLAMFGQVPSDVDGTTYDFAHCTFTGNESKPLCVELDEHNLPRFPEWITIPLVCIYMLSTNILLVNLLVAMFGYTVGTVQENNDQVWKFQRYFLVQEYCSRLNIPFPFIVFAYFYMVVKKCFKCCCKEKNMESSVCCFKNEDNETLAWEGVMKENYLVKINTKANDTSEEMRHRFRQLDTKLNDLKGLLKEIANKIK
Experimental: Luminescence Readout Assay for Measuring Intracellular Calcium.
A stable Chinese hamster ovary cell line expressing human TRPM8 was generated using tetracycline inducible T-REx™ expression system from Invitrogen, Inc. (Carlsbad, Calif.). […] Twenty four hours before the assay, cells were seeded in 96-well plates and TRPM8 expression was induced with 0.5 μg/mL tetracycline. […] Potential antagonists were added 2.5 min prior to the addition of agonist, 1 μM icilin, 100 μM L-menthol, or 1 min prior to the addition of cold buffer (<10° C.). The luminescence was measured by a CCD camera based FLASH-luminometer built by Amgen, Inc. A cooling device attached to FLASH luminometer was used for cold activation.

Compound | IC50
COc1ccc(C(=O)N[C@@H](c2ccc(C(F)(F)F)cc2)c2ncccc2C(F)(F)F)nn1 [Example 37, (S)-6-methoxy-N-((4-(trifluoromethyl)phenyl)(3-(trifluoromethyl)pyridin-2-yl)methyl)pyridazine-3-carboxamide] | 146 nM
COc1cncc(C(=O)N[C@@H](c2ccc(C(F)(F)F)cc2)c2ncccc2C(F)(F)F)c1 [Example 38, (S)-5-methoxy-N-((4-(trifluoromethyl)phenyl)(3-(trifluoromethyl)pyridin-2-yl)methyl)nicotinamide] | 77.7 nM
Cc1ccc(C(=O)N[C@@H](c2ccc(C(F)(F)F)cc2)c2ncccc2C(F)(F)F)cn1 [Example 40, (S)-6-methyl-N-((4-(trifluoromethyl)phenyl)(3-(trifluoromethyl)pyridin-2-yl)methyl)nicotinamide] | 13.4 nM
COc1ncc(C(=O)N[C@@H](c2ccc(C(F)(F)F)cc2)c2ncccc2C(F)(F)F)cn1 [Example 42, (S)-2-methoxy-N-((4-(trifluoromethyl)phenyl)(3-(trifluoromethyl)pyridin-2-yl)methyl)pyrimidine-5-carboxamide] | 53.9 nM
O=C(N[C@@H](c1ccc(C(F)(F)F)cc1)c1ncccc1C(F)(F)F)c1c[nH]c2ncccc12 [Example 43, (S)-N-((4-(trifluoromethyl)phenyl)(3-(trifluoromethyl)pyridin-2-yl)methyl)-1H-pyrrolo[2,3-b]pyridine-3-carboxamide] | 24.5 nM
O=C(N[C@@H](c1ccc(C(F)(F)F)cc1)c1ncccc1C(F)(F)F)c1cc[nH]c(=O)c1 [Example 44, (S)-2-hydroxy-N-((4-(trifluoromethyl)phenyl)(3-(trifluoromethyl)pyridin-2-yl)methyl)isonicotinamide] | 229 nM
Cn1ccc(C(=O)N[C@@H](c2ccc(C(F)(F)F)cc2)c2ncccc2C(F)(F)F)cc1=O [Example 49, (S)-1-methyl-2-oxo-N-((4-(trifluoromethyl)phenyl)(3-(trifluoromethyl)pyridin-2-yl)methyl)-1,2-dihydropyridine-4-carboxamide] | 127 nM
Cc1ccc(C(=O)N[C@@H](c2ccc(C(F)(F)F)cc2)c2ncccc2F)cn1 [Example 52, (S)-N-((3-fluoropyridin-2-yl)(4-(trifluoromethyl)phenyl)methyl)-6-methylnicotinamide] | 40.1 nM
COc1ccncc1C(=O)N[C@@H](c1ccc(C(F)(F)F)cc1)c1ncccc1C(F)(F)F [Example 55, (S)-4-methoxy-N-((4-(trifluoromethyl)phenyl)(3-(trifluoromethyl)pyridin-2-yl)methyl)nicotinamide] | 30.4 nM
O=C(N[C@@H](c1ccc(C(F)(F)F)cc1)c1ncccc1C(F)(F)F)c1cncc(O)c1 [Example 58, (S)-5-hydroxy-N-((4-(trifluoromethyl)phenyl)(3-(trifluoromethyl)pyridin-2-yl)methyl)nicotinamide] | 63.9 nM
Cc1ncncc1C(=O)N[C@@H](c1ccc(C(F)(F)F)cc1)c1ncccc1C(F)(F)F [Example 60, (S)-4-methyl-N-((4-(trifluoromethyl)phenyl)(3-(trifluoromethyl)pyridin-2-yl)methyl)pyrimidine-5-carboxamide] | 78.4 nM
O=C(N[C@@H](c1ccc(C(F)(F)F)cc1)c1ncccc1C(F)(F)F)c1cc(O)ccn1 [Example 62, (S)-4-hydroxy-N-((4-(trifluoromethyl)phenyl)(3-(trifluoromethyl)pyridin-2-yl)methyl)picolinamide] | 172 nM
O=C(N[C@@H](c1ccc(C(F)(F)F)cc1)c1ncccc1C(F)(F)F)c1ccc(O)cn1 [Example 64, (S)-5-hydroxy-N-((4-(trifluoromethyl)phenyl)(3-(trifluoromethyl)pyridin-2-yl)methyl)picolinamide] | 20 nM
O=C(N[C@@H](c1ccc(C(F)(F)F)cc1)c1ncccc1C(F)(F)F)c1cc2cccnc2[nH]1 [Example 66, (S)-N-((4-(trifluoromethyl)phenyl)(3-(trifluoromethyl)pyridin-2-yl)methyl)-1H-pyrrolo[2,3-b]pyridine-2-carboxamide] | 405 nM
O=C(N[C@@H](c1ccc(C(F)(F)F)cc1)c1ncccc1C(F)(F)F)c1ccc2cc[nH]c2n1 [Example 67, (S)-N-((4-(trifluoromethyl)phenyl)(3-(trifluoromethyl)pyridin-2-yl)methyl)-1H-pyrrolo[2,3-b]pyridine-6-carboxamide] | 40 nM
O=C1Cc2ccc(C(=O)N[C@@H](c3ccc(C(F)(F)F)cc3)c3ncccc3C(F)(F)F)cc2N1 [Example 69, (S)-2-oxo-N-((4-(trifluoromethyl)phenyl)(3-(trifluoromethyl)pyridin-2-yl)methyl)indoline-6-carboxamide] | 12.9 nM
O=C1Cc2ccc(C(=O)N[C@@H](c3ccc(C(F)(F)F)cc3)c3ncccc3F)cc2N1 [Example 71, (S)-N-((3-fluoropyridin-2-yl)(4-(trifluoromethyl)phenyl)methyl)-2-oxoindoline-6-carboxamide] | 9.2 nM

The remaining molecules from weak to strong by IC50, led by results:

IC50 | Compound
312 nM | O=C(N[C@@H](c1ccc(C(F)(F)F)cc1)c1ncccc1C(F)(F)F)c1cncnc1O [Example 61, (S)-4-hydroxy-N-((4-(trifluoromethyl)phenyl)(3-(trifluoromethyl)pyridin-2-yl)methyl)pyrimidine-5-carboxamide]
245 nM | O=C1CCC(C(=O)N[C@@H](c2ccc(C(F)(F)F)cc2)c2ncccc2C(F)(F)F)CN1 (stereo partly drawn) [Example 65, 6-oxo-N-((S)-(4-(trifluoromethyl)phenyl)(3-(trifluoromethyl)pyridin-2-yl)methyl)piperidine-3-carboxamide]
134 nM | O=C(N[C@@H](c1ccc(C(F)(F)F)cc1)c1ncccc1C(F)(F)F)c1cccc(=O)[nH]1 [Example 63, (S)-6-oxo-N-((4-(trifluoromethyl)phenyl)(3-(trifluoromethyl)pyridin-2-yl)methyl)-1,6-dihydropyridine-2-carboxamide]
73 nM | COc1ncccc1C(=O)NC(c1ccc(C(F)(F)F)cc1)c1ncccc1F (stereo not drawn) [Example 36, N-((3-fluoropyridin-2-yl)(4-(trifluoromethyl)phenyl)methyl)-2-methoxynicotinamide]
63.5 nM | O=C(N[C@@H](c1ccc(C(F)(F)F)cc1)c1ncccc1C(F)(F)F)c1c[nH]c2ncncc12 [Example 45, (S)-N-((4-(trifluoromethyl)phenyl)(3-(trifluoromethyl)pyridin-2-yl)methyl)-7H-pyrrolo[2,3-d]pyrimidine-5-carboxamide]
63.1 nM | Cc1ncc(C(=O)N[C@@H](c2ccc(C(F)(F)F)cc2)c2ncccc2C(F)(F)F)cn1 [Example 57, (S)-2-methyl-N-((4-(trifluoromethyl)phenyl)(3-(trifluoromethyl)pyridin-2-yl)methyl)pyrimidine-5-carboxamide]
45.5 nM | Cc1cc(C(=O)N[C@@H](c2ccc(C(F)(F)F)cc2)c2ncccc2F)ccn1 [Example 53, (S)-N-((3-fluoropyridin-2-yl)(4-(trifluoromethyl)phenyl)methyl)-2-methylisonicotinamide]
41.6 nM | O=C(N[C@@H](c1ccc(C(F)(F)F)cc1)c1ncccc1C(F)(F)F)c1ccc[nH]c1=O [Example 59, (S)-2-oxo-N-((4-(trifluoromethyl)phenyl)(3-(trifluoromethyl)pyridin-2-yl)methyl)-1,2-dihydropyridine-3-carboxamide]
23.1 nM | O=C(N[C@@H](c1ccc(C(F)(F)F)cc1)c1ncccc1F)c1c[nH]c2ncccc12 [Example 54, (S)-N-((3-fluoropyridin-2-yl)(4-(trifluoromethyl)phenyl)methyl)-1H-pyrrolo[2,3-b]pyridine-3-carboxamide]
21.5 nM | COc1cnccc1C(=O)N[C@@H](c1ccc(C(F)(F)F)cc1)c1ncccc1C(F)(F)F [Example 48, (S)-3-methoxy-N-((4-(trifluoromethyl)phenyl)(3-(trifluoromethyl)pyridin-2-yl)methyl)isonicotinamide]
20.1 nM | COc1ncccc1C(=O)N[C@@H](c1ccc(C(F)(F)F)cc1)c1ncccc1F [Example 47, (S)-N-((3-fluoropyridin-2-yl)(4-(trifluoromethyl)phenyl)methyl)-2-methoxynicotinamide]
17.8 nM | Cc1cc(C(=O)N[C@@H](c2ccc(C(F)(F)F)cc2)c2ncccc2C(F)(F)F)ccn1 [Example 39, (S)-2-methyl-N-((4-(trifluoromethyl)phenyl)(3-(trifluoromethyl)pyridin-2-yl)methyl)isonicotinamide]
15.2 nM | O=C1Cc2cc(C(=O)N[C@@H](c3ccc(C(F)(F)F)cc3)c3ncccc3F)ccc2N1 [Example 70, (S)-N-((3-fluoropyridin-2-yl)(4-(trifluoromethyl)phenyl)methyl)-2-oxoindoline-5-carboxamide]
12.3 nM | COc1ccc(C(=O)N[C@@H](c2ccc(C(F)(F)F)cc2)c2ncccc2F)cn1 [Example 46, (S)-N-((3-fluoropyridin-2-yl)(4-(trifluoromethyl)phenyl)methyl)-6-methoxynicotinamide]
10.5 nM | Cn1cc(C(=O)N[C@@H](c2ccc(C(F)(F)F)cc2)c2ncccc2C(F)(F)F)ccc1=O [Example 50, (S)-1-methyl-6-oxo-N-((4-(trifluoromethyl)phenyl)(3-(trifluoromethyl)pyridin-2-yl)methyl)-1,6-dihydropyridine-3-carboxamide]
9.2 nM | O=C1Cc2cc(C(=O)N[C@@H](c3ccc(C(F)(F)F)cc3)c3ncccc3C(F)(F)F)ccc2N1 [Example 56, (S)-2-oxo-N-((4-(trifluoromethyl)phenyl)(3-(trifluoromethyl)pyridin-2-yl)methyl)indoline-5-carboxamide]
